Data taken from ChEMBL document CHEMBL1212921, “Design, synthesis, enzyme-inhibitory activity, and effect on human cancer cells of a novel series of jumonji domain-containing protein 2 histone demethylase inhibitors” (J Med Chem, 2010).
Active and inactive are the calls of the source. The calls are words filed in the database; no cut-off is given here.

Columns and labels:
LNCaP [1] = experiment: Cytotoxicity against human LNCAP cells expressing JMJD2C at 100 uM after 72 hrs by Alamar blue assay; assay type: functional, cell-based
LNCaP [2] = experiment: Cytotoxicity against human LNCAP cells expressing JMJD2C at 30 uM after 72 hrs by Alamar blue assay; assay type: functional, cell-based
PC-3 = experiment: Cytotoxicity against human PC3 cells at 30 uM after 72 hrs by Alamar blue assay; assay type: functional, cell-based
HCT-116 = experiment: Cytotoxicity against human HCT116 cells at 30 uM after 72 hrs by Alamar blue assay; assay type: functional, cell-based
[3] = target: T1, Lysine-specific demethylase 4A (Homo sapiens, UniProt O75164); experiment: Inhibition of recombinant His-tagged JMJD2A expressed in Escherichia coli Rosetta 2 (DE3) pLysS cells by formaldehyde dehydrogenase-coupled assay
T1 sequence (O75164 whole entry): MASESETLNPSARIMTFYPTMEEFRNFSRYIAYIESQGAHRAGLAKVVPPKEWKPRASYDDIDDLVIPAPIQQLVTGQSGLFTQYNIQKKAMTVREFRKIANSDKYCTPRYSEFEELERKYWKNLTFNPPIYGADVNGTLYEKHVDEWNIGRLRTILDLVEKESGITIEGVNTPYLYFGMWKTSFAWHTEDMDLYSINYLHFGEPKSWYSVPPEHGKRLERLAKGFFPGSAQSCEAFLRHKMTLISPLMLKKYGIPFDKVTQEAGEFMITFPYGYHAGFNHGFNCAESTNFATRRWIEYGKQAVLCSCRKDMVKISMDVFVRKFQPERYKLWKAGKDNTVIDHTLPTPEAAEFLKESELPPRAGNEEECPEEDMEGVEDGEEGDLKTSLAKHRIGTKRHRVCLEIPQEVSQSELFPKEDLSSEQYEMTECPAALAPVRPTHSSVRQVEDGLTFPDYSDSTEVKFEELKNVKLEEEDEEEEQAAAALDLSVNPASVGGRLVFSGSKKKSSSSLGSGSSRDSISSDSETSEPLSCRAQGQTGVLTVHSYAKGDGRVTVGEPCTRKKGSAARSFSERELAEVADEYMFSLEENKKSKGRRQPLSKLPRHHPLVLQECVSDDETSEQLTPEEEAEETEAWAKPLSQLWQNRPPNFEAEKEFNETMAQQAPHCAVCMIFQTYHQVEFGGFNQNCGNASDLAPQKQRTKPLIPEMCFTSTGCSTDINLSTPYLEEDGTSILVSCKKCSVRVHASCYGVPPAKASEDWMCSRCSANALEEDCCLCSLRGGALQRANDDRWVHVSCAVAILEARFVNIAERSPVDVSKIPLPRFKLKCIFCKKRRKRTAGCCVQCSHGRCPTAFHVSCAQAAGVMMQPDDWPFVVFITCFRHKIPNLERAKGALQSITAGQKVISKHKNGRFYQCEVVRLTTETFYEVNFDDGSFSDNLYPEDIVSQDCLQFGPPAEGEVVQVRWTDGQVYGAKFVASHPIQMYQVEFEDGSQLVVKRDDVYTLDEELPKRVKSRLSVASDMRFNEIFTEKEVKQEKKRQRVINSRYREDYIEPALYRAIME

Prolyl hydroxylase EGLN2 = Prolyl hydroxylase EGLN2 (Homo sapiens, UniProt Q96KS0); experiment: Inhibition of human recombinant PHD1 expressed in Sf9 cells by time-resolved fluorescence assay
Egl nine homolog 1 = Egl nine homolog 1 (Homo sapiens, UniProt Q9GZT9); experiment: Inhibition of human recombinant PHD2 expressed in Sf9 cells by time-resolved fluorescence assay
[4] = target: T2, Lysine-specific demethylase 4C (Homo sapiens, UniProt Q9H3R0); experiment: Inhibition of recombinant His-tagged JMJD2C expressed in Escherichia coli Rosetta 2 (DE3) pLysS cells by formaldehyde dehydrogenase-coupled assay
T2 sequence (Q9H3R0 whole entry): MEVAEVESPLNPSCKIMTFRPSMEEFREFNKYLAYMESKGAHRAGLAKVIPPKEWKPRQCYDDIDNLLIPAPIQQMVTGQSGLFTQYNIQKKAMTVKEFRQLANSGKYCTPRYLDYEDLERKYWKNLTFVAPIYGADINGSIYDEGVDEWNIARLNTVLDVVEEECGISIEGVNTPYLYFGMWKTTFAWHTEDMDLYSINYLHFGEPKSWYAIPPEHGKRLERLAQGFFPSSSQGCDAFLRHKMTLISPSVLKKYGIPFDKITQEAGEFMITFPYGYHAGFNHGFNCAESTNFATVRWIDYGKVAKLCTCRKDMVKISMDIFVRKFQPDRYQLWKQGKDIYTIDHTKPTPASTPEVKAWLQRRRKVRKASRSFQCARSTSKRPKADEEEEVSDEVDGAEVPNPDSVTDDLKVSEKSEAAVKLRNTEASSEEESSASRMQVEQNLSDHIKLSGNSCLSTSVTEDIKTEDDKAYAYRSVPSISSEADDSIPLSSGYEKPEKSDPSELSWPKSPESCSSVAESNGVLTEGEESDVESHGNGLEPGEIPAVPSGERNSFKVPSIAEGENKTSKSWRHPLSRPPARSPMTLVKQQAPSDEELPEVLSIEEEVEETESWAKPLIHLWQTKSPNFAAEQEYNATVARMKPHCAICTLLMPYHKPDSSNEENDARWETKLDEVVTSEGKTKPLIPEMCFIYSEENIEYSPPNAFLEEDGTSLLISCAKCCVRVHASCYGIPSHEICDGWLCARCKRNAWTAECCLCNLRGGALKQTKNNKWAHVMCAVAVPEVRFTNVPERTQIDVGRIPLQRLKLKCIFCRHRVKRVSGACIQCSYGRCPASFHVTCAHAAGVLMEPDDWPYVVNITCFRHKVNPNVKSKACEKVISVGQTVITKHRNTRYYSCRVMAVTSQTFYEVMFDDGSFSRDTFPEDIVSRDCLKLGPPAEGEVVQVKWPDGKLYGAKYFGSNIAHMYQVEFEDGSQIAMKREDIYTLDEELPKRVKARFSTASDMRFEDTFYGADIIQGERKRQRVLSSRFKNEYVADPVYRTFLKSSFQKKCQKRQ

LNCaP [5] = experiment: Cytotoxicity against human LNCAP cells expressing JMJD2C after 72 hrs by Alamar blue assay; assay type: functional
KYSE-150 = experiment: Cytotoxicity against human KYSE-150 cells at 30 uM after 72 hrs by Alamar blue assay; assay type: functional, cell-based

Prolyl hydroxylase EGLN2, sequence (Q96KS0 whole entry): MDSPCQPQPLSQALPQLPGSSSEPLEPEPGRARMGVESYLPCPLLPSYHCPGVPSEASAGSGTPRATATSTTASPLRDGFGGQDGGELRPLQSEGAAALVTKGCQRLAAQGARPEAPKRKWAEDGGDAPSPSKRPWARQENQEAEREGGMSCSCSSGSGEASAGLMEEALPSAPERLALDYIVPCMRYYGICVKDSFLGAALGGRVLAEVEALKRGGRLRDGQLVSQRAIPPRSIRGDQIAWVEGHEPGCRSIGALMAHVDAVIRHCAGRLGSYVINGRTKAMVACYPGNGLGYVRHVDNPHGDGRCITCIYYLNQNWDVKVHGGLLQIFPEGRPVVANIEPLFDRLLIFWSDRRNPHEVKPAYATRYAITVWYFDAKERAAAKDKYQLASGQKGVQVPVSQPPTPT
Egl nine homolog 1, sequence (Q9GZT9 whole entry): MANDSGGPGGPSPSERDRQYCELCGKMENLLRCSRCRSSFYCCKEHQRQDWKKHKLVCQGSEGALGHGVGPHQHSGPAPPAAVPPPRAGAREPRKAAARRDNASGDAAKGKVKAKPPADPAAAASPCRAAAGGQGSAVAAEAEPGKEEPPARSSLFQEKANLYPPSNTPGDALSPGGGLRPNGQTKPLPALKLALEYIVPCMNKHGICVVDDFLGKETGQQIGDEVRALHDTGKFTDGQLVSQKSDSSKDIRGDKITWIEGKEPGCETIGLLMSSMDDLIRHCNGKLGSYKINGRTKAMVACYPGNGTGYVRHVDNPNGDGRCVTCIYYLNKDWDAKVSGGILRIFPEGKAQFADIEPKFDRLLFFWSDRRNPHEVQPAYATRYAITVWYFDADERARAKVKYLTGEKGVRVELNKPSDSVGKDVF

IC50 [3] | IC50 (Prolyl hydroxylase EGLN2; read-out: IC50) | IC50 (Egl nine homolog 1) | IC50 [4] | SMILES | also measured
 |  |  |  | COC(=O)c1ccnc(C(=O)OC)c1 | Activity (LNCaP [1]): inactive; Activity (LNCaP [2]): inactive; Activity (PC-3): inactive; Activity (HCT-116): inactive
3.2 µM | > 100 µM | > 100 µM |  | CCCCN(C)CCCCCCCCC(=O)N(O)CCC(=O)O | 
6 µM | > 100 µM | > 100 µM | 1.5 µM | CN(C)CCCCCCCC(=O)N(O)CCC(=O)O | 
5.5 µM | > 100 µM | > 100 µM | 1.6 µM | CN(C)CCCCCCCCCC(=O)N(O)CCC(=O)O | 
14 µM | > 100 µM | > 100 µM | 34 µM | CC(=O)N(O)CCC(=O)O | 
2 µM |  |  | 1.3 µM | CN(CCCCCCCCC(=O)N(O)CCC(=O)O)Cc1ccccc1 | 
120 µM |  |  | 74 µM | CC(C)CCCCCC(=O)N(O)CCC(=O)O | 
 |  |  |  | N[C@@H]1C[C@H]1c1ccc(OCC[C@H](NC(=O)c2ccccc2)C(=O)NCc2ccccc2)cc1 | GI50 (LNCaP [5]): 36 µM
22 µM |  |  | 8.8 µM | CN(C)CCCCCCCCCCCC(=O)N(O)CCC(=O)O | 
11 µM |  |  | 5.2 µM | CN(C)CCCCCCCCCCC(=O)N(O)CCC(=O)O | 
4.4 µM |  |  | 1.7 µM | CNCCCCCCCCC(=O)N(O)CCC(=O)O | 
8.7 µM |  |  | 2.7 µM | CN(C)CCCCCCC(=O)N(O)CCC(=O)O | 
 |  |  |  | COC(=O)CCN(O)C(=O)CCCCCCCCN(C)C | Activity (LNCaP [1]): inactive; Activity (LNCaP [2]): inactive; Activity (PC-3): inactive; Activity (HCT-116): inactive; Activity (KYSE-150): inactive
3 µM | > 100 µM | > 100 µM | 1 µM | CN(C)CCCCCCCCC(=O)N(O)CCC(=O)O | Activity (LNCaP [1]): inactive; Activity (LNCaP [2]): inactive
17 µM |  |  | 10 µM | CN(C)CCCCCC(=O)N(O)CCC(=O)O | 
 |  |  |  | O=C(O)c1ccnc(C(=O)O)c1 | IC50 (Prolyl hydroxylase EGLN2): 1.5 µM
250 µM | 2.1 µM |  | 500 µM | O=C(O)CNC(=O)C(=O)O [N-OXALYLGLYCINE] | 
8.1 µM | > 100 µM | > 100 µM | 2 µM | CN(C)CCCCCCCCN(O)C(=O)CCC(=O)O | 
